Measurements from patent US8367682B2, “Pyrimidine derivatives and their use as pesticides” (Novartis AG, priority 2006, dated 2013).

Assays:
Rhipicephalus sanguineus = assay: Activity in vitro against Rhipicephalus sanguineus (dog ticks), HTS; conditions: in this test; adult ticks; concentration not given
Protocol: 2. Activity in Vitro Against Rhipicephalus sanguineus (Dog Ticks)—HTS
A clean adult tick population is used to seed a suitably formatted 96-well plate containing the test substances to be evaluated for antiparasitic activity. Each compound is tested by serial dilution in order to determine its MED. Ticks are left in contact with the test compound for 10 minutes and are then incubated at 28° C. and 80% relative humidity (RH) for 7 days, during which the test compound's effect is monitored. Acaricidal activity is confirmed if and when adult ticks are dead.

Ctenocephalides felis = assay: Activity in vitro against Ctenocephalides felis (cat flea), HTS, artificial blood feeding; conditions: in this test; adult fleas; concentration not given
Protocol: 3. Activity in Vitro Against Ctenocephalides felis (Cat Flea)—HTS
A mixed adult population of fleas is placed in a suitably formatted 96-well plate allowing fleas to access and feed on treated blood via an artificial feeding system. Each compound is tested by serial dilution in order to determine its MED. Fleas are fed on treated blood for 24 hours, after which the compound's effect is recorded. Insecticidal activity is determined on the basis of the number of dead fleas recovered from the feeding system.

[1] = tested on: Rhipicephalus sanguineus nymphs; assay: In-vivo test against Rhipicephalus sanguineus nymphs on Mongolian gerbils; conditions: for % reduction of number of ticks: spray (or spot-on) on gerbils, vs placebo group, Abbot's formula
Protocol: 4. In-Vivo Test Against Rhipicephalus sanquineus Nymphs on Mongolian Gerbils (Meriones unguiculatus)
On day 0, gerbils are treated with the test compound at a given dose by spray (or spot-on) application. On day +1 (+2), the animals are infested with nymphs of R. sanguineus. Ticks are left on the animals until full repletion. Seven days after infestation nymphs dropped off fully engorged are collected and counted. They are kept until molting to also evaluate growth regulating activity of the test compound. Efficacy in killing (and growth regulating) is expressed as a tick number (and molted tick number) reduction in comparison with a placebo treated group, using the Abbot's formula. A tick number reduction of more than 60%, in particular more than 70%, is regarded as a minimum prerequisite for a commercial development of a compound. In addition, said killing efficacy should be put into practice with the minimal dose for safety and environmental reasons.

Row | SMILES | % reduction of number of ticks ([1]; dose 3.2 mg/kg) [%] | % reduction of number of ticks ([1]; dose 10 mg/kg) [%] | also measured
1 | Nc1c(Oc2ccc(F)c(C(F)(F)F)c2)nc(-c2ccccc2)nc1Oc1ccc(F)c(C(F)(F)F)c1 [2-phenyl-4,6-bis-(4-fluoro-3-[trifluoromethyl]phenoxy)-5-amino-pyrimidine] |  |  | acaricidal efficacy (Rhipicephalus sanguineus): does not show any significant acaricidal efficacy; insecticidal efficacy (Ctenocephalides felis): does not show any significant insecticidal efficacy; killing efficacy ([1]; at these low concentrations (doses of the table, 3.2-10 mg/kg)): No significant killing efficacy
2 | COc1cccc(-c2nc(Oc3ccc(F)c(C(F)(F)F)c3)c(N)c(Oc3ccc(F)c(C(F)(F)F)c3)n2)c1 [Compound 1.7] | 91 |  | 
3 | Cc1cccc(-c2nc(Oc3ccc(F)c(C(F)(F)F)c3)c(N)c(Oc3ccc(F)c(C(F)(F)F)c3)n2)c1 [Compound 1.9] |  | 74 | 
4 | CC(C)c1cccc(-c2nc(Oc3ccc(F)c(C(F)(F)F)c3)c(N)c(Oc3ccc(F)c(C(F)(F)F)c3)n2)c1 [Compound 1.10] |  | 81 | 
5 | CC(O)c1cccc(-c2nc(Oc3ccc(F)c(C(F)(F)F)c3)c(N)c(Oc3ccc(F)c(C(F)(F)F)c3)n2)c1 (stereo not shown) [Compound 1.18] |  | 85 | 
6 | Cc1cc(-c2nc(Oc3ccc(F)c(C(F)(F)F)c3)c(N)c(Oc3ccc(F)c(C(F)(F)F)c3)n2)ccc1F [Compound 1.23] |  | 99 | 
7 | COCc1cccc(-c2nc(Oc3ccc(F)c(C(F)(F)F)c3)c(N)c(Oc3ccc(F)c(C(F)(F)F)c3)n2)c1 [Compound 1.27] | 78 |  | 
8 | Nc1c(Oc2ccc(F)c(C(F)(F)F)c2)nc(-c2cccc(N3CCOCC3)c2)nc1Oc1ccc(F)c(C(F)(F)F)c1 [Compound 1.30] | 79 |  | 
9 | CN(C)c1cccc(-c2nc(Oc3ccc(F)c(C(F)(F)F)c3)c(N)c(Oc3ccc(F)c(C(F)(F)F)c3)n2)c1 [Compound 1.34, 2-(3-Dimethylamino-phenyl)-4,6-bis-(4-fluoro-3-trifluoromethyl-phenoxy)-pyrimidin-5-ylamine] | 85 |  | 
10 | Cn1ccc2ccc(-c3nc(Oc4ccc(F)c(C(F)(F)F)c4)c(N)c(Oc4ccc(F)c(C(F)(F)F)c4)n3)cc21 [Compound 2.2] | 89 |  | 
11 | Nc1c(Oc2ccc(F)c(C(F)(F)F)c2)nc(-c2ccc3cc[nH]c3c2)nc1Oc1ccc(F)c(C(F)(F)F)c1 [Compound 2.3] | 81 |  | 
